In data set [1] the target is T1, 5-HT1A receptor (Rattus norvegicus, UniProt P19327).
T1 construct: from tissue; host or cells: rat frontal cortex membrane preparation
T1 sequence (P19327 1-422): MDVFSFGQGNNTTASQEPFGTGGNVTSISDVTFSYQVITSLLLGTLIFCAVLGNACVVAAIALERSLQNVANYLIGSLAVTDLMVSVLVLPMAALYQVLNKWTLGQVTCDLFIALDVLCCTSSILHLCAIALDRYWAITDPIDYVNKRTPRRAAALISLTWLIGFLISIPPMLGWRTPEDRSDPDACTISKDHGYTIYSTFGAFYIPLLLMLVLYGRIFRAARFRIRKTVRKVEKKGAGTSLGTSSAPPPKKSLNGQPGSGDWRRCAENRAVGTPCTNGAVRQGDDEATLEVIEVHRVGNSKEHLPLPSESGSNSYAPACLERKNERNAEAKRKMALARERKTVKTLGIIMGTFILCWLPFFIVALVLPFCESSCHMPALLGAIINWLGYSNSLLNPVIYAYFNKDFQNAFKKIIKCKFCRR
In words: 5-HT1A receptor binding. Conditions: rat frontal cortex preparation, ligand tritiated 8-OH-DPAT. The procedure:
(§1) Receptor bindings—with the exception of the 5-HT2C receptor binding—were determined by using cerebral region preparations of male Wistar rats weighing 120-200 g. For the preparation of 5-HT1A receptor binding frontal cortex preparations were used. The al receptor binding studies were performed from isolated frontal cortex pre-parations. For the 5-HT2C receptor binding experiments choroid plexus of pigs was used. The protein contents of membrane preparations were determined by the method of Lowry (1951).
5-HT1A receptor binding was measured according to the method of Peroutka (Peroutka, S. J.: J. Neurochem. 47, p. 529 (1986)). The ligand was tritiated 8-hydroxy-N,N-dipropyl-2-aminotetraline (8-OH-DPAT). For the determination of non-specific binding 10 μM serotonin was applied. Incubation […] volume was 250 μl. Incubation was carried out at a temperature of 25 C for 30 minutes. The reaction was terminated by the addition of 9 ml of ice-cold 50 mM TRIS-HCl (pH 7.7) buffer and quick vacuum filtration using Whatman GFIB fibreglass filtering paper. Radioactivity of the filter boards was measured by liquid scintillation spectrometry.
(§2) The IC50 value is the value of concentration where the difference between total and non-specific binding is 50% in the presence of a determined concentration of a specific ligand.

For data set [2], the system named is Male Mongolian gerbils. The data set is described as follows: Neuroprotective effect in global ischemia test (bilateral carotid occlusion). In kind it is in vivo, Mongolian gerbil. The following applies: gerbil; for Effect (%): change of CA1 cell loss score vs. control, 30 mg/kg i.p.; for CA1 cell loss (score): 30 mg/kg i.p. 45 min after surgery, scored 4 days after surgery on 6-point scale. The procedure: Male Mongolian gerbils weighing 60-90 g were used as test animals. The test compounds were administered intraperitoneally at a dose of 30 mg/kg 45 min after surgery. Test substances were suspended in 0.4% methylcellulose solution. In diethylether narcosis, the right and left common carotid arteries were exposed through an anterior midline cervical incision and isolated from the vagus nerves and the surrounding tissues. Full arrest of carotid blood flow was achieved by tightening an aneurysm clip for 3 min. During surgery the body temperature of the animals was kept at the individual preoperative level (37.5±0.5° C.) with the help of a heating pad and a heating lamp.
4 days after the surgery the animals were anaesthetized with 60 mg/kg i.p nembutal (10 ml/kg) and perfused through the heart first with saline then with a fixative solution containing 0.1% glutaraldehyde, 4% paraformaldehyde and 0.2% picric acid in 0.1 M phosphate buffer (pH 7.4) for 30 min. The brain was removed from the skull and post fixed for at least 1 week at 4° C. in the same fixative solution.
Alternate coronal sections of 60 μm thickness were cut from different levels of the dorsal hippocampus by a microtome. The sections were repeatedly washed in 0.1 M phosphate buffer (pH 7.4) and stained by silver impregnation. The sections were stored twice in a preparatory solution (2% sodium hydroxide and 0.875% ammonium hydroxide solution) for 5 minutes, impregnated for 10 minutes in 0.875% ammonium hydroxide and 0.5% silver nitrate solution) and placed into a washing solution (0.5% sodium carbonate and 0.01% ammonium nitrate dissolved in a 29.1% aqueous ethanol solution) twice for 2 minutes and once for one minute. The slices were then developed in 9.9% ethanol solution containing 1.5% formaldehyde and 0.01% ammonium nitrate and fixed three times for 3 minutes in a 0.5% acetic acid solution. The stained slices were placed in 0.1M phosphate buffer (pH 7.4) and chrome gelatine, applied on plates, dehydrated and treated with xylol. The cover plates were fixed with DPX glue (Fluka).
The sections were examined under light microscopy and the overall neuronal damage in the hippocampal CA1 subfield in both hippocampi was scored on a 6-point scale: (O) undamaged, (1)—0-10%; (2)—10-30%; (3)—30-50%; (4)—50-70%; (5)—70-90%; (6)—90-100% cell loss. Group differences between drug-treated and vehicle-treated groups were statistically analysed by Mann-Whitney U-test.

The target of data set [3] is T2, 5-HT2C receptor (Sus scrofa, UniProt K7GSR7).
T2 construct: from tissue; host or cells: pig choroid plexus membrane preparation
T2 sequence (K7GSR7 1-457): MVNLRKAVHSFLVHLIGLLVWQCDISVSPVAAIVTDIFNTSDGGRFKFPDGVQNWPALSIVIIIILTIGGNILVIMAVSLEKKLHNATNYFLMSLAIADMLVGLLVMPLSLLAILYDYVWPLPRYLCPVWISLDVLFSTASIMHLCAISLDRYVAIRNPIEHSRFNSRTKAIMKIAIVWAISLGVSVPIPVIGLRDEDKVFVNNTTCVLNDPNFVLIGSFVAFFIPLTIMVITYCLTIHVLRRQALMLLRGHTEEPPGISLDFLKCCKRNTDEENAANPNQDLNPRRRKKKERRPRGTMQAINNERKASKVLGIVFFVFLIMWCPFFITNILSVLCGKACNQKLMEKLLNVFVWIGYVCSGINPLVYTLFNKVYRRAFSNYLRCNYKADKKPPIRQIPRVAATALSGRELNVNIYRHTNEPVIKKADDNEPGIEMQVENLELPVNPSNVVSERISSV
The data set is described as follows: 5-HT2C receptor binding. The arrangement: species or system pig. The following applies: choroid plexus of pigs, ligand 3H-mesulergin 1.0 nM. The procedure:
as §1
(§3) In the course of 5-HT2C and α1 receptor binding experiments the ligands were ^3H-mesulergin (1.0 nM) and ^3H-prazosine (0.3 nM), respectively. The non-specifically binding ligands were mianserine (1 μM and prazosine (1 μM), respectively.
as §2

Data set [4] concerns Male Wistar rats. In words: Vogel's drinking conflict test. In kind it is in vivo. The following applies: ip, 0.5 h, rat, i.p. 30 min prior to test, increase in tolerated shocks, read-out: MED. The procedure:
(§4) The anxiolytic effect of the compounds according to the invention was investigated on rats according to Vogel's drinking conflict test and elevated plus-maze test (S. Pelow, P. Chopin, S. E. File, J. Briley: Neurosci. Methods 14, p. 149 (1985)).
Male Wistar rats weighing 160-180 g were used for the experiment. The animals were deprived of drinking water for 48 hours and fasted for 24 hours prior to test. The test compounds or vehicle were administered intraperitoneally, 30 min prior to test. […] Following every 20 licks electric shocks (0.7 mA) were applied through the drinking spout during the 5 min test period. The number of punished licks were recorded. The effect of the test compounds was expressed as % increase in numbers of tolerated shocks. Minimal effective doses (MED) were determined for each compound.

Data set [5] relates to Male Sprague-Dawley rats. The data set is described as follows: Elevated plus-maze test in rats. The class given is in vivo. The following applies: minimal effective dose, rat, p.o., 60 min after treatment, time in or entries into open arms.
Excerpt: as §4
A wooden cross elevated to 50 cm above the floor, 15 cm wide with 100 cm long arms was used for the experiments. The sides and ends of two opposite arms of the cross were equipped with 40 cm high walls, however, the arms were open to the 15×15 cm central area (closed arms). The two other opposite arms were not encircled by walls (open arms).
Male Sprague-Dawley rats weighing 200-220 g were used for the experiments. The animals were placed in the central area of the equipment 60 min after treatment and the following four parameters have been observed for the 5 min test time: • time spent in the open arms (sec), • time spent in the closed arms (see), • number of entries into the open arms, • number of entries into the closed arms.
The effect was expressed as percent increase in either the time spent in the open arms or number of entries into the open arms. MEDs (minimal effective doses) were determined for each compound.

For data set [6], the target named is α1 receptor. In words: α1 receptor binding experiment. The following applies: rat isolated frontal cortex preparation, ligand 3H-prazosine 0.3 nM. The method, then:
as §1, §3, §2

Where a name gives a salt, the structure may show the parent alone. Marks after values point to notes of the source that are not given here.

`CCC1(CCCCN2CCN(c3ccc(Cl)cc3)CC2)C(=O)Nc2ccc(F)cc21` (centres unmarked) [Example 90, 3-{4-[4-(4-Chlorophenyl)-piperazin-1-yl]-butyl}-3-ethyl-5-fluoro-1,3-dihydro-2H-indol-2-one]: the melting point (in general, the temperature, or range, at which the solid turns liquid) lay within 148 to 150 °C. Besides, in data set [1], the IC50 (in general, the concentration needed to halve the response being measured) was greater than 300 nM. In data set [2], the “Effect (%)” value is reported as −38% and the “CA1 cell loss (score)” value is given as 2.73* score.

Molecule `CCC1(CCCN2CCN(c3cccc(Cl)c3)CC2)C(=O)Nc2ccc(Cl)cc21` (centres unmarked) [Example 57, 5-Chloro-3-{3-[4-(3-chlorophenyl)-piperazin-1-yl]-propyl}-3-ethyl-1,3-dihydro-2H-indol-2-one] displayed a melting point of 117 to 119 °C. In addition, the IC50 in data set [3] is less than 50 nM.

The molecule `CCC1(CCCCN2CCN(c3ccc(Cl)cc3)CC2)C(=O)Nc2c(Cl)cc(Cl)cc21` (centres unmarked) [Example 87, 5,7-Dichloro-3-{4-[4-(4-chlorophenyl)-piperazin-1-yl]-butyl}-3-ethyl-1,3-dihydro-2H-indol-2-one] yielded a melting point of 152 to 154 °C. The same molecule returned an IC50 in data set [1] greater than 400 nM. In addition, the minimal effective dose in data set [4] stood at 5 mg/kg. In addition, the MED in data set [5] was found to be 0.3 mg/kg p.o.

In turn, `CCC1(CCCCN2CCN(c3ccc(F)cc3)CC2)C(=O)Nc2ccccc21` (centres unmarked) [Example 95, 3-Ethyl-3-{4-[4-(4-fluorophenyl)-piperazin-1-yl]-butyl}-1,3-dihydro-2H-indol-2-one] displayed a melting point of 118 to 119 °C. Moreover, in data set [1], the IC50 was greater than 300 nM. In addition, in data set [4], the minimal effective dose is 10 mg/kg. The MED in data set [5] is recorded as 0.1 mg/kg p.o.

As for `CCC1(CCCCN2CCN(c3cccc(Cl)c3)CC2)C(=O)Nc2ccc(F)cc21` (centres unmarked) [Example 85, 3-{4-[4-(3-Chlorophenyl)-piperazin-1-yl]-butyl}-3-ethyl-5-fluoro-1,3-dihydro-2H-indol-2-one mono-hydrochloride], the minimal effective dose in data set [4] worked out at 5 mg/kg. The MED in data set [5] stood at 0.1 mg/kg p.o. Besides, in data set [2], the “Effect (%)” value is listed as −46% and the “CA1 cell loss (score)” value is given as 2.70* score.

`CCC1(CCCCN2CCN(c3cccc(Cl)c3)CC2)C(=O)Nc2ccc(C)cc21` (centres unmarked) [Example 78, 3-{4-[4-(3-Chlorophenyl)-piperazin-1-yl]-butyl}-3-ethyl-5-methyl-1,3-dihydro-2H-indol-2-one] came in with a melting point of 142 to 144 °C. This molecule yielded an IC50 in data set [1] greater than 200 nM. Moreover, the IC50 in data set [3] was less than 100 nM. The half-maximal inhibitory concentration (IC50) in data set [6] is less than 100 nM.

As to `CCC1(CCCCN2CCN(c3cccc(Cl)c3)CC2)C(=O)Nc2ccc(S(N)(=O)=O)cc21` (centres unmarked) [Example 72, 3-{4-[4-(3-Chlorophenyl)-piperazin-1-yl]-butyl}-3-ethyl-1,3-dihydro-2H-indol-2-one 5-sulfonamide monooxalate], the IC50 in data set [1] is greater than 200 nM; in data set [3], less than 100 nM.

For the molecule `CCC1(CCCCN2CCN(c3ccccc3)CC2)C(=O)Nc2ccccc21` (centres unmarked) [Example 68, 3-[4-(4-Phenylpiperazin-1-yl)-butyl]-3-ethyl-1,3-dihydro-2H-indol-2-one monooxalate], the IC50 in data set [1] is greater than 200 nM; in data set [3] it was less than 100 nM. Moreover, in data set [4], the minimal effective dose is 10 mg/kg.

Regarding `CCC1(CCCCN2CCN(c3cccc(Cl)c3)CC2)C(=O)Nc2ccc(Br)cc21` (centres unmarked) [Example 61, 5-Bromo-3-{4-[4-(3-chlorophenyl)-piperazin-1-yl]-butyl}-3-ethyl-1,3-dihydro-2H-indol-2-one monooxalate], the IC50 was greater than 200 nM in data set [1] and less than 100 nM in data set [3].

The values are drawn from patent publication US7786129B2, “Piperazine derivatives of dialkyl oxindoles” (Egis Gyogyszergyar Nyrt, priority 2004, dated 2010).
